Measurements taken from patent EP2121694B1, “CYCLOPROPYL FUSED INDOLOBENZAZEPINE HCV NS5B INHIBITORS” (Bristol-Myers Squibb Company, priority 2007, dated 2008).
Where two headings read alike, the source gives them in different places.

Experiments:
HCV NS5B = biological target: T1, HCV NS5B (Hepatitis C virus genotype 1b, UniProt Q9WMX2); assay: Modified HCV NS5B RdRp enzyme assay (preincubation protocol); type: biochemical; details: HCV NS5B RdRp genotype 1b
T1 construct: The protein was expressed with an 18 amino acid C-terminal truncation to enhance the solubility; made in house; host or cells: E. coli BL21(DE3), pET21a vector
T1 sequence (Q9WMX2 2420-2992): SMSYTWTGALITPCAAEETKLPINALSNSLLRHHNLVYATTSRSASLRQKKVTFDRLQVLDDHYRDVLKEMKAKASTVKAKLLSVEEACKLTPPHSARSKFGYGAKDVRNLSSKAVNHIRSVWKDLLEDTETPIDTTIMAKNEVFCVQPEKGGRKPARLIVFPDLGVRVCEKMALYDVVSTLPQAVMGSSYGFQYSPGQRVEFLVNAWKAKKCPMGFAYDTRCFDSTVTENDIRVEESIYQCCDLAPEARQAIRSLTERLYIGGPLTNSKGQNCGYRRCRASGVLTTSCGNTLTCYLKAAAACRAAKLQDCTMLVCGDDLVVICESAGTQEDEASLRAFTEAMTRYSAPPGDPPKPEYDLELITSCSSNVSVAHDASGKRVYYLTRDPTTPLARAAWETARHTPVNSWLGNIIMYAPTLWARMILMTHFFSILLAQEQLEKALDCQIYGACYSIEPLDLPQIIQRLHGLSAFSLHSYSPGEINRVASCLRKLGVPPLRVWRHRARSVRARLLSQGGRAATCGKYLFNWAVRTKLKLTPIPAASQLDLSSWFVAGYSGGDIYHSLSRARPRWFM
Method: HCV NS5B RdRp cloning, expression, and purification. The cDNA encoding the NS5B protein of HCV, genotype 1b, was cloned into the pET21a expression vector. The protein was expressed with an 18 amino acid C-terminal truncation to enhance the solubility. The E. coli competent cell line BL21(DE3) was used for expression of the protein. Cultures were grown at 37 °C for ∼ 4 hours until the cultures reached an optical density of 2.0 at 600 nm. The cultures were cooled to 20 °C and induced with 1 mM IPTG. Fresh ampicillin was added to a final concentration of 50 µg/ml and the cells were grown overnight at 20 °C.
Cell pellets (3L) were lysed for purification to yield 15-24 mgs of purified NS5B. The lysis buffer consisted of 20 mM Tris-HCl, pH 7.4, 500 mM NaCl, 0.5% triton X-100, 1 mM DTT, 1mM EDTA, 20% glycerol, 0.5 mg/ml lysozyme, 10 mM MgCl2, 15 ug/ml deoxyribonuclease I, and Complete TM protease inhibitor tablets (Roche). After addition of the lysis buffer, frozen cell pellets were resuspended using a tissue homogenizer. To reduce the viscosity of the sample, aliquots of the lysate were sonicated on ice using a microtip attached to a Branson sonicator. The sonicated lysate was centrifuged at 100,000 x g for 1hr at 4 °C and filtered through a 0.2 µm filter unit (Corning).
The protein was purified using three sequential chromatography steps: Heparin sepharose CL-6B, polyU sepharose 4B, and Hitrap SP sepharose (Pharmacia). The chromatography buffers were identical to the lysis buffer but contained no lysozyme, deoxyribonuclease I, MgCl2 or protease inhibitor and the NaCl concentration of the buffer was adjusted according to the requirements for charging the protein onto the column. Each column was eluted with a NaCl gradient which varied in length from 5-50 column volumes depending on the column type. After the final chromatography step, the resulting purity of the enzyme is >90% based on SDS-PAGE analysis. The enzyme was aliquoted and stored at -80 °C.
Standard HCV NS5B RdRp enzyme assay. HCV RdRp genotype 1b assays were run in a final volume of 60 µl in 96 well plates (Costar 3912). The assay buffer is composed of 20 mM Hepes, pH 7.5, 2.5 mM KCl, 2.5 mM MgCl2, 1 mM DTT, 1.6 U RNAse inhibitor (Promega N2515), 0.1 mg/ml BSA (Promega R3961), and 2 % glycerol. All compounds were serially diluted (3-fold) in DMSO and diluted further in water such that the final concentration of DMSO in the assay was 2%. HCV RdRp genotype 1b enzyme was used at a final concentration of 28 nM. A polyA template was used at 6 nM, and a biotinylated oligo-dT12 primer was used at 180 nM final concentration. Template was obtained commercially (Amersham 27-4110). Biotinylated primer was prepared by Sigma Genosys. 3H-UTP was used at 0.6 µCi (0.29 µM total UTP). Reactions were initiated by the addition of enzyme, incubated at 30 °C for 60 min, and stopped by adding 25 µl of 50 mM EDTA containing SPA beads (4 µg/µl, Amersham RPNQ 0007). Plates were read on a Packard Top Count NXT after >1hr incubation at room temperature.
Modified HCV NS5B RdRp enzyme assay. A modified enzyme assay was performed essentially as described for the standard enzyme assay except for the following: The biotinylated oligo dT12 primer was precaptured on streptavidin-coated SPA beads by mixing primer and beads in assay buffer and incubating at room temperature for one hour. Unbound primer was removed after centrifugation. The primer-bound beads were resuspended in 20 mM Hepes buffer, pH 7.5 and used in the assay at final concentrations of 20 nM primer and 0.67 µg/µl beads. Order of addition in the assay: enzyme (14 nM) was added to diluted compound followed by the addition of a mixture of template (0.2 nM) , 3H-UTP (0.6 µCi, 0.29 µM), and primer-bound beads, to initiate the reaction; concentrations given are final. Reactions were allowed to proceed for 4 hours at 30° C.
IC50 values for compounds were determined using seven different [I]. […]

HCV replicon = assay: HCV FRET screening assay in HCV replicon cells; type: cell-based; details: Hepatitis C virus
Source text: FRET Assay Preparation. To perform the HCV FRET screening assay, 96-well cell culture plates were used. The FRET peptide (Anaspec, Inc.) (Taliani et al., Anal. Biochem. 1996, 240, 60-67) contains a fluorescence donor, EDANS, near one end of the peptide and an acceptor, DABCYL, near the other end. The fluorescence of the peptide is quenched by […] resonance energy transfer (RET) between the donor and the acceptor, but as the NS3 protease cleaves the peptide the products are released from RET quenching and the fluorescence of the donor becomes apparent. The assay reagent was made as follows: 5X cell Luciferase cell culture lysis reagent from Promega (#E153A) diluted to 1X with dH2O, NaCl added to 150 mM final, the FRET peptide diluted to 20 uM final from a 2 mM stock.
To prepare plates, HCV replicon cells, with or without a Renilla luciferase reporter gene, were trypsinized and placed into each well of a 96-well plate with titrated test compounds added in columns 3 through 12; columns 1 and 2 contained a control compound (HCV protease inhibitor), and the bottom row contained cells without compound. The plates were then placed in a CO2 incubator at 37 °C.
Assays. Subsequent to addition of the test compounds described above (FRET Assay Preparation), at various times the plate was removed and Alamar blue solution (Trek Diagnostics, #00-100) was added per well as a measure of cellular toxicity. After reading in a Cytoflour 4000 instrument (PE Biosystems), plates were rinsed with PBS and then used for FRET assay by the addition of 30 ul of the FRET peptide assay reagent described above (FRET Assay Preparation) per well. The plate was then placed into the Cytoflour 4000 instrument which had been set to 340 excite/490 emission, automatic mode for 20 cycles and the plate read in a kinetic mode. Typically, the signal to noise using an endpoint analysis after the reads was at least three-fold. Alternatively, after Alamar blue reading, plates were rinsed with PBS, 50 ul of DMEM (high glucose) without phenol red was added and plates were then used for luciferase assay using the Promega Dual-Glo Luciferase Assay System.
Compound analysis was determined by quantification of the relative HCV replicon inhibition and the relative cytotoxicity values. To calculate cytoxicity values, the average Alamar Blue fluorescence signals from the control wells were set as 100% non-toxic. The individual signals in each of the compound test wells were then divided by the average control signal and multiplied by 100% to determine […]. To calculate the HCV replicon inhibition values, an average background value was obtained from the two wells containing the highest amount of HCV protease inhibitor at the end of the assay period. These numbers were similar to those obtained from naïve Huh-7 cells.
The background numbers were then subtracted from the average signal obtained from the control wells and this number was used as 100% activity. The individual signals in each of the compound test wells were then divided by the averaged control values after background subtraction and multiplied by 100% to determine percent activity. EC50 values for a protease inhibitor titration were calculated as the concentration which caused a 50% reduction in FRET or luciferase activity. The two numbers generated for the compound plate, percent cytoxicity and percent activity were used to determine compounds of interest for further analysis.

[1] = HCV replicon cells, FRET assay, read-out: EC50

Compound	IC50 (HCV NS5B) [nM]	EC50 (HCV replicon; [1]) [nM]	EC50 (HCV replicon) [nM]
COc1ccc2c(c1)C1CC1(C(=O)O)Cn1c-2c(C2CCCCC2)c2ccc(C(=O)NS(=O)(=O)C(C)C)cc21 (stereo not drawn)	97 to 1000		
CCC(CC)N1CCN(C(=O)C23CC2c2cc(OC)ccc2-c2c(C4CCCCC4)c4ccc(C(=O)NS(=O)(=O)N(C)C)cc4n2C3)CC1 (stereo not drawn) [drawing 39]	97 to 1000		
COc1ccc2c(c1)C1CC1(C(=O)O)Cn1c-2c(C2CCCCC2)c2ccc(C(=O)NS(N)(=O)=O)cc21 (stereo not drawn)	97 to 1000		
COc1ccc2c(c1)C1CC1(C(=O)N1CCCNCC1)Cn1c-2c(C2CCCCC2)c2ccc(C(=O)NS(=O)(=O)N(C)C)cc21 (stereo not drawn)	97 to 1000	97 to 1000	
COc1cccc2c1C1CC1(C(=O)N1C[C@@H](C)N[C@@H](C)C1)Cn1c-2c(C2CCCCC2)c2ccc(C(=O)NS(=O)(=O)N(C)C)cc21 (stereo partly drawn)	97 to 1000	97 to 1000	
COC(=O)c1ccc2c(C3CCCCC3)c3n(c2c1)CC1(C(=O)N2CC(C)OC(C)C2)CC1c1c(OC(F)(F)F)cccc1-3 (stereo not drawn)	1000 to 10000		
CCN(CC)CCN1CCCN(C(=O)C23CC2c2cc(OC)ccc2-c2c(C4CCCCC4)c4ccc(C(=O)NS(=O)(=O)N(C)C)cc4n2C3)CC1 (stereo not drawn)	97 to 1000	97 to 1000	
COc1ccc2c(c1)C1CC1(C(=O)N1CCC(C)(O)CC1)Cn1c-2c(C2CCCCC2)c2ccc(C(=O)NS(=O)(=O)C3CC3)cc21 (stereo not drawn)	97 to 1000		
COc1ccc2c(c1)C1CC1(C(=O)N1CCCN(C)CC1)Cn1c-2c(C2CCCCC2)c2ccc(C(=O)NS(N)(=O)=O)cc21 (stereo not drawn)	97 to 1000	97 to 1000	
COC(=O)C12CC1c1cc(OC)ccc1-c1c(C3CCCCC3)c3ccc(C(=O)NS(=O)(=O)C(C)C)cc3n1C2 (stereo not drawn)	97 to 1000		
COc1ccc2c(c1)C1CC1(C(=O)N1CCC(C)(O)CC1)Cn1c-2c(C2CCCCC2)c2ccc(C(=O)NS(=O)(=O)N(C)C)cc21 (stereo not drawn)	97 to 1000	97 to 1000	
COc1ccc2c(c1)C1CC1(C(=O)N1CCCN(C)CC1)Cn1c-2c(C2CCCCC2)c2ccc(C(=O)NS(=O)(=O)N(C)C)cc21 (stereo not drawn) [drawing 65]	97 to 1000		
COc1ccc2c(c1)C1CC1(C(=O)N1CCOC[C@H]1C)Cn1c-2c(C2CCCCC2)c2ccc(C(=O)NS(=O)(=O)N(C)C)cc21 (stereo partly drawn)	97 to 1000	97 to 1000	
COc1ccc2c(c1)C1CC1(C(=O)N1CC[C@@H](N(C)C)C1)Cn1c-2c(C2CCCCC2)c2ccc(C(=O)NS(=O)(=O)N(C)C)cc21 (stereo partly drawn)	97 to 1000	97 to 1000	
COc1ccc2c(c1)C1CC1(C(=O)N1CCC(C)(O)CC1)Cn1c-2c(C2CCCCC2)c2ccc(C(=O)NS(=O)(=O)N3CCC3)cc21 (stereo not drawn)	97 to 1000	97 to 1000	
C[C@@H]1CN(C(=O)C23CC2c2c(OC(F)(F)F)cccc2-c2c(C4CCCCC4)c4ccc(C(=O)NS(=O)(=O)N(C)C)cc4n2C3)C[C@H](C)O1 (stereo partly drawn)	97 to 1000	97 to 1000	

Compound	IC50 (HCV NS5B) [nM]	EC50 (HCV replicon; [1]) [nM]	EC50 (HCV replicon) [nM]
COc1ccc2c(c1)C1CC1(C(=O)N1CC[C@H](N(C)C)C1)Cn1c-2c(C2CCCCC2)c2ccc(C(=O)NS(=O)(=O)N(C)C)cc21 (stereo partly drawn)	97 to 1000	97 to 1000	
COC(=O)C12CC1c1cc(OC)ccc1-c1c(C3CCCCC3)c3ccc(C(=O)NS(N)(=O)=O)cc3n1C2 (stereo not drawn)	97 to 1000		
COc1ccc2c(c1)C1CC1(C(=O)N1CCCCC1CN(C)C)Cn1c-2c(C2CCCCC2)c2ccc(C(=O)NS(=O)(=O)N(C)C)cc21 (stereo not drawn) [drawing 50]	97 to 1000		
COc1ccc2c(c1)C1CC1(C(=O)O)Cn1c-2c(C2CCCCC2)c2ccc(C(=O)NS(=O)(=O)C3CC3)cc21 (stereo not drawn)	97 to 1000		
COc1ccc2c(c1)C1CC1(C(=O)N1CCC(C)(O)CC1)Cn1c-2c(C2CCCCC2)c2ccc(C(=O)NS(C)(=O)=O)cc21 (stereo not drawn)	97 to 1000	97 to 1000	
COc1ccc2c(c1)[C@@H]1C[C@]1(C(=O)O)Cn1c-2c(C2CCCCC2)c2ccc(C(=O)NS(=O)(=O)N(C)C)cc21	97 to 1000		1000 to 10000
COc1ccc2c(c1)C1CC1(C(=O)N1CCCN(C)CC1)Cn1c-2c(C2CCCCC2)c2ccc(C(=O)NS(=O)(=O)N3CCC3)cc21 (stereo not drawn)	97 to 1000		
COc1ccc2c(c1)C1CC1(C(=O)N1CCOC[C@H]1CO)Cn1c-2c(C2CCCCC2)c2ccc(C(=O)NS(=O)(=O)N(C)C)cc21 (stereo partly drawn)	97 to 1000	97 to 1000	
COc1ccc2c(c1)C1CC1(C(=O)N1CC[C@H](N(C)C)C1)Cn1c-2c(C2CCCCC2)c2ccc(C(=O)NS(=O)(=O)C3CC3)cc21 (stereo partly drawn)	97 to 1000	97 to 1000	
COc1ccc2c(c1)C1CC1(C(=O)N1CC(C)OC(C)C1)Cn1c-2c(C2CCCCC2)c2ccc(C(=O)NS(C)(=O)=O)cc21 (stereo not drawn)	97 to 1000		97 to 1000
COc1ccc2c(c1)C1CC1(C(=O)N(C)CCN(C)C)Cn1c-2c(C2CCCCC2)c2ccc(C(=O)NS(=O)(=O)N(C)C)cc21 (stereo not drawn)	97 to 1000	97 to 1000	
COc1ccc2c(c1)[C@H]1C[C@@]1(C(=O)O)Cn1c-2c(C2CCCCC2)c2ccc(C(=O)NS(=O)(=O)N(C)C)cc21	97 to 1000		1000 to 10000
COC(=O)c1ccc2c(C3CCCCC3)c3n(c2c1)CC1(C(=O)O)CC1c1c(OC(F)(F)F)cccc1-3 (stereo not drawn)	1000 to 10000		
CCC(CC)N1CCN(C(=O)C23CC2c2cc(OC)ccc2-c2c(C4CCCCC4)c4ccc(C(=O)NS(=O)(=O)N(C)C)cc4n2C3)CC1 (stereo not drawn) [drawing 37]	97 to 1000		
COc1ccc2c(c1)C1CC1(C(=O)O)Cn1c-2c(C2CCCCC2)c2ccc(C(=O)OC(C)(C)C)cc21 (stereo not drawn)	1000 to 10000		
